From BindingDB's records for doi:10.1007/s00259-006-0324-y (Columbia University, 2007)

Experiments:
Protein lifeguard 1 = Protein lifeguard 1 (Bos taurus, UniProt Q32L53)
[1] = target: 5-hydroxytryptamine receptor 3A (Bos taurus, UniProt F1N4Y2)
Histamine H1 receptor = Histamine H1 receptor (Bos taurus, UniProt A5D795)
[2] = target: Sodium-dependent dopamine transporter (Bos taurus, UniProt P27922)
[3] = target: 5-hydroxytryptamine receptor 2A (Bos taurus, UniProt Q75Z89)
[4] = target: 5-hydroxytryptamine receptor 6 (Bos mutus, UniProt L8HST4)
Sequence of 5-hydroxytryptamine receptor 6 (L8HST4 whole entry): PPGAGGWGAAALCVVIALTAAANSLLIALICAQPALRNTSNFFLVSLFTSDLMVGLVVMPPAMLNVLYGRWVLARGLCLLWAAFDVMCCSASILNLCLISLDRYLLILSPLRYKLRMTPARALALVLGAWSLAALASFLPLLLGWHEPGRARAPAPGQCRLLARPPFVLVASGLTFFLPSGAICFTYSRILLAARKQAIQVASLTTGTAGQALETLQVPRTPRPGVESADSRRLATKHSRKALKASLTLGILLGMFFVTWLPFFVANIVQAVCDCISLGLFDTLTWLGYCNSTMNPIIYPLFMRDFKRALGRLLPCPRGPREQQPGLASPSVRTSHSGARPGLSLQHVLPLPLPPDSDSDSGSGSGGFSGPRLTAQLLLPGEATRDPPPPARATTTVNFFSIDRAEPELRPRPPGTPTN

Vasopressin V1b receptor = Vasopressin V1b receptor (Bos taurus, UniProt F1ME85)
Sequence of Vasopressin V1b receptor (F1ME85 whole entry): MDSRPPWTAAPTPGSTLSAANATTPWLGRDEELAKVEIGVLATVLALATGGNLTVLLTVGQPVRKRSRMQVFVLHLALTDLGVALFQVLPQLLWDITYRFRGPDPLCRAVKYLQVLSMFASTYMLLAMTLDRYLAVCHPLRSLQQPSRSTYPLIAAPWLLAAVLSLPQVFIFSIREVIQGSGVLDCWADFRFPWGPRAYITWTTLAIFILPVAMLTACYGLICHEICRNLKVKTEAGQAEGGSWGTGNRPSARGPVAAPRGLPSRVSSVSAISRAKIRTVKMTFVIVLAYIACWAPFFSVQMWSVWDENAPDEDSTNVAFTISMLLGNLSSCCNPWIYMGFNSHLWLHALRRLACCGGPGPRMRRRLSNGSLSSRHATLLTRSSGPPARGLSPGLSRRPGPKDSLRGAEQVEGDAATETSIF

Nischarin = Nischarin (Bos mutus, UniProt L8IEU8)
[5] = target: Voltage-dependent L-type calcium channel subunit beta-2 (Bos taurus, UniProt Q9MZL5)
Vasopressin V2 receptor = Vasopressin V2 receptor (Bos taurus, UniProt P48044)
Sequence of Vasopressin V2 receptor (P48044 whole entry): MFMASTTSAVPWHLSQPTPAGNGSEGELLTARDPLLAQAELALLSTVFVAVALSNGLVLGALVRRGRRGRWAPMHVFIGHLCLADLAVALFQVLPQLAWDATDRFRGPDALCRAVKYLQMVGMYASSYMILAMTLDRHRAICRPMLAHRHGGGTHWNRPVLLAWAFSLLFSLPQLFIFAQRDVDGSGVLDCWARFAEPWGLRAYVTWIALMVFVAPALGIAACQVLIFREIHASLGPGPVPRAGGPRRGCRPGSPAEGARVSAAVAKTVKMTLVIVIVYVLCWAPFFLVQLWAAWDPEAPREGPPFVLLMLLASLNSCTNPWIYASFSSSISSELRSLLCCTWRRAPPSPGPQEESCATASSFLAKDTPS

Histamine H2 receptor = Histamine H2 receptor (Bos mutus, UniProt L8IRW0)
Sequence of Histamine H2 receptor (L8IRW0 whole entry): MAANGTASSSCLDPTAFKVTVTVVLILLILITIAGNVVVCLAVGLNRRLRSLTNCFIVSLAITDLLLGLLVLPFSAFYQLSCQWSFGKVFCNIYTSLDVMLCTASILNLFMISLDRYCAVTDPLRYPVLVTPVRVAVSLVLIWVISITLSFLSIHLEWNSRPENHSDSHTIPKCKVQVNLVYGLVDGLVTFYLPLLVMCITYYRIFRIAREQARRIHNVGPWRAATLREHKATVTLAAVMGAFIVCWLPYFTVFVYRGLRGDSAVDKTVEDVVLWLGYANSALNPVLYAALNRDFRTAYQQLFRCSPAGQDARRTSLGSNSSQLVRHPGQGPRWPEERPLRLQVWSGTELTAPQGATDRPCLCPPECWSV

[6] = target: 4-aminobutyrate aminotransferase, mitochondrial (Bos taurus, UniProt Q9BGI0)
Sequence of 4-aminobutyrate aminotransferase, mitochondrial (Q9BGI0 whole entry): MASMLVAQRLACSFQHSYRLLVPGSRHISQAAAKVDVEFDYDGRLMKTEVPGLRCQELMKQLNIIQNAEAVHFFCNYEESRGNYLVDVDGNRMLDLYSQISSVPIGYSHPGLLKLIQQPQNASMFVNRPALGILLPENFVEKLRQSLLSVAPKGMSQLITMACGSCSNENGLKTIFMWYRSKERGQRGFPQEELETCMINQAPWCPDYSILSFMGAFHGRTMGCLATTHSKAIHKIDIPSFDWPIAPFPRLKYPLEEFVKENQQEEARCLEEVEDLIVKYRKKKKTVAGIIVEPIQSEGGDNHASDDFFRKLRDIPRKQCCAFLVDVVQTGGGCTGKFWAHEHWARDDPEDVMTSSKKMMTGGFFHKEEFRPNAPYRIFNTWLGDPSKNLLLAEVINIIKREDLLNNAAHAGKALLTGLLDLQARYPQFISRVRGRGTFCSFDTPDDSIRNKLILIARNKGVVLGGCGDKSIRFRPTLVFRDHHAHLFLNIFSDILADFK

Mu-type opioid receptor = Mu-type opioid receptor (Bos taurus, UniProt P79350)
[7] = target: Sodium-dependent noradrenaline transporter (Bos taurus, UniProt P51143)
Sequence of Sodium-dependent noradrenaline transporter (P51143 whole entry): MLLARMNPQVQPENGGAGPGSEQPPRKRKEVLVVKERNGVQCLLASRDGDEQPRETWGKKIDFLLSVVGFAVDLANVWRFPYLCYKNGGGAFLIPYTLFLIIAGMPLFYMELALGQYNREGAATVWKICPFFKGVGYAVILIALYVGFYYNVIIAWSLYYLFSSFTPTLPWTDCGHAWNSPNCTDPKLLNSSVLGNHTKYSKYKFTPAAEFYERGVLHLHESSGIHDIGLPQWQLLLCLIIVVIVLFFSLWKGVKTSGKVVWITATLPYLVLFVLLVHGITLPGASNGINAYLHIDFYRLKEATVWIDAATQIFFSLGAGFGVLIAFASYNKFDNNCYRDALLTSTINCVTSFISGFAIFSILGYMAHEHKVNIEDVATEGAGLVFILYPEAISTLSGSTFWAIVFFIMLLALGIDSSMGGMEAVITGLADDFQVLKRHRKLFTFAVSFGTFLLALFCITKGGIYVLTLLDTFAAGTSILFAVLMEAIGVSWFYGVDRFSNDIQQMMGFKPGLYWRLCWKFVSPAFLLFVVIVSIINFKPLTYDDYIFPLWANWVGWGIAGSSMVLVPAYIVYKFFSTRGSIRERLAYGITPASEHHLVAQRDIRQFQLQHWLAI

[8] = target: Gamma-aminobutyric acid receptor subunit alpha-1 (Bos taurus, UniProt P08219)
Thromboxane-A synthase = Thromboxane-A synthase (Bos taurus, UniProt Q2KIG5)
Sequence of Thromboxane-A synthase (Q2KIG5 whole entry): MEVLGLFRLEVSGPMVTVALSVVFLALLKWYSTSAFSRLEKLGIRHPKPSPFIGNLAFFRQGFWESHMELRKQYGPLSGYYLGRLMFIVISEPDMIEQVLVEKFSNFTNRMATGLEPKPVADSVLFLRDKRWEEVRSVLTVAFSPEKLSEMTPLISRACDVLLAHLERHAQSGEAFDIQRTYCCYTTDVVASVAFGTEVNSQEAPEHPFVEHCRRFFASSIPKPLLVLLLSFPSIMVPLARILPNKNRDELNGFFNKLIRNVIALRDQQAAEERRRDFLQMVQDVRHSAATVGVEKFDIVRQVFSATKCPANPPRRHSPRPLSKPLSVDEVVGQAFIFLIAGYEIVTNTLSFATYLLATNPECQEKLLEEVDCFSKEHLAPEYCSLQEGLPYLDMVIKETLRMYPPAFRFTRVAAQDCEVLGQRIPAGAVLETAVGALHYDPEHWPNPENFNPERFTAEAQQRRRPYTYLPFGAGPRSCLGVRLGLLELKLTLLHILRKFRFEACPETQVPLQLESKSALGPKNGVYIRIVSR

Glutamate receptor [9] = target: Glutamate receptor (Bos taurus, UniProt A4FV91)
Histamine receptor H3 = Histamine receptor H3 (Bos taurus, UniProt F1MML8)
Cannabinoid receptor 2 = Cannabinoid receptor 2 (Bos taurus, UniProt E1B9P2)
Vasopressin V1a receptor = Vasopressin V1a receptor (Bos taurus, UniProt A2VDS9)
Neuromedin-K receptor = Neuromedin-K receptor (Bos mutus, UniProt L8IYF9)
[10] = target: Potassium voltage-gated channel subfamily H member 2 (Bos taurus, UniProt A5PKI1)
[11] = target: 5-hydroxytryptamine receptor 7 (Bos mutus, UniProt L8II28)
Glutamate receptor [12] = target: Glutamate receptor (Bos taurus, UniProt E1BGZ0)
[13] = target: Solute carrier family 22 member 1 (Bos taurus, UniProt A7MBE0)
Substance-K receptor = Substance-K receptor (Bos taurus, UniProt P05363)
[14] = target: 5-hydroxytryptamine receptor 2B (Bos taurus, UniProt Q8MI09)
[15] = target: 5-hydroxytryptamine receptor 5A (Bos mutus, UniProt L8HQU1)
D(2) dopamine receptor = D(2) dopamine receptor (Bos taurus, UniProt P20288)
Beta-arrestin-1 = Beta-arrestin-1 (Bos taurus, UniProt P17870)
[16] = target: Multidrug resistance protein 1 (Bos taurus, UniProt Q65A17)
Sequence of Multidrug resistance protein 1 (Q65A17 whole entry): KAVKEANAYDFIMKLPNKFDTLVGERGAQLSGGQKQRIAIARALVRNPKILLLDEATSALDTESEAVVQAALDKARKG

Beta-arrestin-2 = Beta-arrestin-2 (Bos taurus, UniProt P32120)
[17] = target: 5-hydroxytryptamine receptor 1B (Bos mutus, UniProt L8IGV0)
[18] = target: Vesicle amine transport protein 1 homolog (T. californica)-like (Bos taurus, UniProt Q29RL6)
[19] = target: Muscarinic acetylcholine receptor M2 (Bos taurus, UniProt P41985)
[20] = target: 5-hydroxytryptamine 1D receptor (Bos taurus, UniProt Q8MI13)
Sequence of 5-hydroxytryptamine 1D receptor (Q8MI13 whole entry): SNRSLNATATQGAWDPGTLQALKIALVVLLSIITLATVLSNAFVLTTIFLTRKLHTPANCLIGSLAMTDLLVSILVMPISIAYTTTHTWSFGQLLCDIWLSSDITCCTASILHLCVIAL

D(1A) dopamine receptor = D(1A) dopamine receptor (Bos taurus, UniProt Q95136)
[21] = target: Kappa-type opioid receptor (Bos taurus, UniProt Q2KIP6)
[22] = target: Beta-2 adrenergic receptor (Bos taurus, UniProt Q28044)
Sequence of Beta-2 adrenergic receptor (Q28044 whole entry): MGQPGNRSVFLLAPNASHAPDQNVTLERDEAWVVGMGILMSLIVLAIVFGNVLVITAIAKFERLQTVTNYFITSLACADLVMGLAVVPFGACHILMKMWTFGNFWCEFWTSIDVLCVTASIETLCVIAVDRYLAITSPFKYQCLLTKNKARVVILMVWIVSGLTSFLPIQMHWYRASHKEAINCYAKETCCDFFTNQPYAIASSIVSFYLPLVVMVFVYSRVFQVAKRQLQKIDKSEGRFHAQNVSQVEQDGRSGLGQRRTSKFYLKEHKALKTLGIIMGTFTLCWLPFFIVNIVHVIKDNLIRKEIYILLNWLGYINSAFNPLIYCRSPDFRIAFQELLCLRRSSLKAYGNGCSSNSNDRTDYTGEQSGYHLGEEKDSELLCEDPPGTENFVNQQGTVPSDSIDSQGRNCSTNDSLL

Dopamine receptor D4 = Dopamine receptor D4 (Bos taurus, UniProt Q8WNT0)
Sequence of Dopamine receptor D4 (Q8WNT0 whole entry): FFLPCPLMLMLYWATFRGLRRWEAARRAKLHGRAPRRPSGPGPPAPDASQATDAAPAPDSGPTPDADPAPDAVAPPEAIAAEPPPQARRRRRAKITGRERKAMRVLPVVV

Sequence of Protein lifeguard 1 (Q32L53 whole entry): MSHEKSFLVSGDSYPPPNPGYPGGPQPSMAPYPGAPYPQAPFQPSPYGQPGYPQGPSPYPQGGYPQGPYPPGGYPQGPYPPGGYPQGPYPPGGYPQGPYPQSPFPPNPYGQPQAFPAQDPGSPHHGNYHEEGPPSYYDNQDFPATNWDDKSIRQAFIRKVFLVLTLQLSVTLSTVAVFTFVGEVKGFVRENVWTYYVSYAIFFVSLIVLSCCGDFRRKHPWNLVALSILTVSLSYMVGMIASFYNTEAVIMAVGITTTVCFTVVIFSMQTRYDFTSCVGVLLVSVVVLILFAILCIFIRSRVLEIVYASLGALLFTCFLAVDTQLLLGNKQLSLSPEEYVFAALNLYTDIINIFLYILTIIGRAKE
Sequence of 5-hydroxytryptamine receptor 2A (Q75Z89 whole entry): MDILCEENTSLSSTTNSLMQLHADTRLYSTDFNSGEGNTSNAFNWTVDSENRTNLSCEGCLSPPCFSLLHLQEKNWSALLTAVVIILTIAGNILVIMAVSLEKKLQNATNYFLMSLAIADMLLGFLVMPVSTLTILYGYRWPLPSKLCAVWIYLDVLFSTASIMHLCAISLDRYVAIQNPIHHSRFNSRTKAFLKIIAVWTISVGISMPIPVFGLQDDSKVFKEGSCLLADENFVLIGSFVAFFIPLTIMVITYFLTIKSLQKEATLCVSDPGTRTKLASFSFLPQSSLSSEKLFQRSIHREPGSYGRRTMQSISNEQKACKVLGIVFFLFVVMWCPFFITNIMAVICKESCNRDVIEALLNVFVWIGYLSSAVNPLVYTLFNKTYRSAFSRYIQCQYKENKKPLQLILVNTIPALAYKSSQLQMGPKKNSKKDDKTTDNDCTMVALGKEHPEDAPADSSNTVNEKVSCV

`COc1ccccc1N1CCN(CCCCn2ncc(=O)n(C)c2=O)CC1` [NSC_11603174] was tested, and the Ki (Protein lifeguard 1) was over 10 µM, the Ki [1] was over 10 µM and the Ki (Histamine H1 receptor) was 1.03 µM. It also gave a Ki [2] of over 10 µM, a Ki [3] of 4.98 µM and a Ki [4] of over 10 µM. For the same compound, the Ki (Vasopressin V1b receptor) was over 10 µM, the Ki (Nischarin) was over 10 µM and the Ki [5] was over 10 µM. The Ki (Vasopressin V2 receptor) was over 10 µM, the Ki (Histamine H2 receptor) was 2.13 µM and the Ki [6] was over 10 µM. The Ki (Mu-type opioid receptor) was over 10 µM, the Ki [7] was over 10 µM and the Ki [8] was over 10 µM. For the same compound, the Ki (Thromboxane-A synthase) was over 10 µM, the Ki (Glutamate receptor [9]) was over 10 µM and the Ki (Histamine receptor H3) was over 10 µM. For the same compound, the Ki (Cannabinoid receptor 2) was over 10 µM, the Ki (Vasopressin V1a receptor) was over 10 µM and the Ki (Neuromedin-K receptor) was over 10 µM. It also gave a Ki [10] of over 10 µM, a Ki [11] of 0.0129 µM and a Ki (Glutamate receptor [12]) of over 10 µM. It also gave a Ki [13] of 0.00675 µM, a Ki (Substance-K receptor) of over 10 µM and a Ki [14] of 0.0736 µM. It also gave a Ki [15] of over 10 µM, a Ki (D(2) dopamine receptor) of over 10 µM and a Ki (Beta-arrestin-1) of over 10 µM. It also gave a Ki [16] of over 10 µM, a Ki (Beta-arrestin-2) of over 10 µM and a Ki [17] of 0.643 µM. It also gave a Ki [18] of over 10 µM, a Ki [19] of over 10 µM and a Ki [20] of 0.0883 µM. It also gave a Ki (D(1A) dopamine receptor) of over 10 µM, a Ki [21] of over 10 µM and a Ki [22] of over 10 µM. For the same compound, the Ki (Dopamine receptor D4) was 0.0218 µM.
